According to patent US11076594B2, “Pyrazolone compound or salt thereof, preparation method therefor, herbicide composition and use thereof” (QINGDAO KINGAGROOT CHEMICAL COMPOUNDS CO., LTD., priority 2015, dated 2021):

Legend:
Assay type in all cases: in vivo
Indian mallow = experiment: weed control effect in post-emergence stage (Table 1); parameters: key: Level 10: completely dead; Level 9: above 95% growth control rate; Level 8: above 90% growth control rate; Level 7: above 80% growth control rate; Level 6: above 70% growth control rate; Level 5: above 60% growth control rate; Level 4: above 50% growth control rate; Level 3: above 20% growth control rate; Level 2: 5%-20% growth control rate; Level 1: below 5% growth control rate; conditions: post-emergence spray at 4-5 leaf stage, 250 g/ha active ingredient with 450 kg/ha water, rated after 3 weeks in greenhouse
Procedure, shortened: (§1)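 Fresh-weight reduction is recorded three weeks after a sprayer applies the acetone/Tween 80 aqueous compound solution to greenhouse-grown plants at the 4-5 leaf stage.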

bidens bipinnata = experiment: as above; parameters: key: Level 10: completely dead; Level 9: above 95% growth control rate; Level 8: above 90% growth control rate; Level 7: above 80% growth control rate; Level 6: above 70% growth control rate; Level 5: above 60% growth control rate; Level 4: above 50% growth control rate; Level 3: above 20% growth control rate; Level 2: 5%-20% growth control rate; Level 1: below 5% growth control rate; conditions: post-emergence spray at 4-5 leaf stage, 250 g/ha active ingredient with 450 kg/ha water, rated after 3 weeks in greenhouse
Procedure, shortened: as §1

crab grass = experiment: as above; parameters: key: Level 10: completely dead; Level 9: above 95% growth control rate; Level 8: above 90% growth control rate; Level 7: above 80% growth control rate; Level 6: above 70% growth control rate; Level 5: above 60% growth control rate; Level 4: above 50% growth control rate; Level 3: above 20% growth control rate; Level 2: 5%-20% growth control rate; Level 1: below 5% growth control rate; conditions: post-emergence spray at 4-5 leaf stage, 250 g/ha active ingredient with 450 kg/ha water, rated after 3 weeks in greenhouse
Procedure, shortened: as §1

echinochloa = experiment: as above; parameters: key: Level 10: completely dead; Level 9: above 95% growth control rate; Level 8: above 90% growth control rate; Level 7: above 80% growth control rate; Level 6: above 70% growth control rate; Level 5: above 60% growth control rate; Level 4: above 50% growth control rate; Level 3: above 20% growth control rate; Level 2: 5%-20% growth control rate; Level 1: below 5% growth control rate; conditions: post-emergence spray at 4-5 leaf stage, 250 g/ha active ingredient with 450 kg/ha water, rated after 3 weeks in greenhouse
Procedure, shortened: as §1

foxtail = experiment: as above; parameters: key: Level 10: completely dead; Level 9: above 95% growth control rate; Level 8: above 90% growth control rate; Level 7: above 80% growth control rate; Level 6: above 70% growth control rate; Level 5: above 60% growth control rate; Level 4: above 50% growth control rate; Level 3: above 20% growth control rate; Level 2: 5%-20% growth control rate; Level 1: below 5% growth control rate; conditions: post-emergence spray at 4-5 leaf stage, 250 g/ha active ingredient with 450 kg/ha water, rated after 3 weeks in greenhouse
Procedure, shortened: as §1

rorippa indica = experiment: as above; parameters: key: Level 10: completely dead; Level 9: above 95% growth control rate; Level 8: above 90% growth control rate; Level 7: above 80% growth control rate; Level 6: above 70% growth control rate; Level 5: above 60% growth control rate; Level 4: above 50% growth control rate; Level 3: above 20% growth control rate; Level 2: 5%-20% growth control rate; Level 1: below 5% growth control rate; conditions: post-emergence spray at 4-5 leaf stage, 250 g/ha active ingredient with 450 kg/ha water, rated after 3 weeks in greenhouse
Procedure, shortened: as §1

corn = experiment: post-emergence stage experiment, crop (Table 1); conditions: post-emergence spray at 4-5 leaf stage, 250 g/ha active ingredient with 450 kg/ha water, rated after 3 weeks in greenhouse
Procedure, shortened: as §1

wheat [1] = experiment: post-emergence stage experiment, crop (Table 1); conditions: post-emergence spray at 4-5 leaf stage, 250 g/ha active ingredient with 450 kg/ha water, rated after 3 weeks in greenhouse
Procedure, shortened: as §1

rice = experiment: post-emergence stage experiment, crop (Table 1); conditions: post-emergence spray at 4-5 leaf stage, 250 g/ha active ingredient with 450 kg/ha water, rated after 3 weeks in greenhouse
Procedure, shortened: as §1

alopecurus japonicas = experiment: wheat field resistant weed control, greenhouse spray at 4 leaf stage; parameters: key: Level 10: completely dead; Level 9: above 95% growth control rate; Level 8: above 90% growth control rate; Level 7: above 80% growth control rate; Level 6: above 70% growth control rate; Level 5: above 60% growth control rate; Level 4: above 50% growth control rate; Level 3: above 20% growth control rate; Level 2: 5%-20% growth control rate; Level 1: below 5% growth control rate; conditions: sprayed at 4 leaf stage, 4 weeks after treatment, resistant to ALS and ACCase inhibitor herbicides
Method: (§2) The activity level standard of harmful plant destruction (i.e. growth control rate) is as follows:
(§3) The above described growth control rate is fresh weight control rate.
(§4) The seeds of alopecurus japonicas, flixweed, shepherd's purse, corn gromwell, chickweed, beckmannia syzigachne, and annual ryegrass and wheat seeds were put into a plastic pot loaded with soil, and then covered with 0.5-2 cm soil, the seeds were allowed to grow in good greenhouse environment. The test plants were treated at 4 leaf stage 2-3 weeks after sowing. The test compounds of the present invention were dissolved in acetone respectively, then added with methyl oleate emulsion and diluted by certain amount of water to certain concentration. The solution was sprayed to the plant with a sprayer. Then the plants were cultured for 4 weeks in greenhouse.

wheat [2] = experiment: wheat field test, crop selectivity, greenhouse spray at 4 leaf stage; conditions: sprayed at 4 leaf stage, 4 weeks after treatment
Method: as §2, §3, §4

| SMILES | weed control effect, Indian mallow (level) (Indian mallow) | weed control effect, Bidens bipinnata (level) (bidens bipinnata) | weed control effect, Crab grass (level) (crab grass) | weed control effect, Echinochloa (level) (echinochloa) | weed control effect, Green foxtail (level) (foxtail) | weed control effect, Rorippa indica (level) (rorippa indica) | effect on crop, Corn (level) (corn) | effect on crop, Wheat (level) (wheat [1]) | effect on crop, Rice (level) (rice) | Alopecurus japonicas weed controlling effect (activity level) (alopecurus japonicas; 1 g/mu) | Alopecurus japonicas weed controlling effect (activity level) (alopecurus japonicas; 2 g/mu) | Alopecurus japonicas weed controlling effect (activity level) (alopecurus japonicas; 4 g/mu) | Alopecurus japonicas weed controlling effect (activity level) (alopecurus japonicas; 8 g/mu) | Wheat (activity level, crop damage) (wheat [2]; 2 g/mu) | Wheat (activity level, crop damage) (wheat [2]; 4 g/mu) | Wheat (activity level, crop damage) (wheat [2]; 8 g/mu) | Wheat (activity level, crop damage) (wheat [2]; 16 g/mu) | Wheat (activity level, crop damage) (wheat [2]; 32 g/mu) |
| --- | --- | --- | --- | --- | --- | --- | --- | --- | --- | --- | --- | --- | --- | --- | --- | --- | --- | --- |
| Cc1nn(C)cc1C(=O)Oc1c(C(=O)c2ccc(C(F)(F)F)c(N3CCCC3=O)c2Cl)c(C2CC2)nn1C [Compound 027] | 10 | 8 (Level 8: above 90% growth control rate) | 8 (Level 8: above 90% growth control rate) | 7 (Level 7: above 80% growth control rate) | 10 | 7 (Level 7: above 80% growth control rate) | 4 (Level 4: above 50% growth control rate) | 3 (Level 3: above 20% growth control rate) | 7 (Level 7: above 80% growth control rate) | 6 (Level 6: above 70% growth control rate) | 10 | 10 | 10 | 1 (Level 1: below 5% growth control rate) | 4 (Level 4: above 50% growth control rate) | 4 (Level 4: above 50% growth control rate) | 4 (Level 4: above 50% growth control rate) | 5 (Level 5: above 60% growth control rate) |
| CCOc1c(C(=O)Oc2c(C(=O)c3ccc(C(F)(F)F)c(N4CCCC4=O)c3Cl)c(C)nn2C)cnn1C [Compound 021] | 9 (Level 9: above 95% growth control rate) | – | 7 (Level 7: above 80% growth control rate) | 6 (Level 6: above 70% growth control rate) | 10 | – | 3 (Level 3: above 20% growth control rate) | 3 (Level 3: above 20% growth control rate) | 5 (Level 5: above 60% growth control rate) | 2 (Level 2: 5%-20% growth control rate) | 6 (Level 6: above 70% growth control rate) | 10 | 10 | 0 | 1 (Level 1: below 5% growth control rate) | 4 (Level 4: above 50% growth control rate) | 4 (Level 4: above 50% growth control rate) | 4 (Level 4: above 50% growth control rate) |
| CCn1nc(C2CC2)c(C(=O)c2ccc(C(F)(F)F)c(N3CCCCC3=O)c2Cl)c1OC(=O)c1cn(C)nc1C [Compound 115] | 10 | 6 (Level 6: above 70% growth control rate) | 2 (Level 2: 5%-20% growth control rate) | 9 (Level 9: above 95% growth control rate) | 10 | 10 | 3 (Level 3: above 20% growth control rate) | 1 (Level 1: below 5% growth control rate) | 8 (Level 8: above 90% growth control rate) | 4 (Level 4: above 50% growth control rate) | 6 (Level 6: above 70% growth control rate) | 10 | 10 | 0 | 1 (Level 1: below 5% growth control rate) | 3 (Level 3: above 20% growth control rate) | 4 (Level 4: above 50% growth control rate) | 4 (Level 4: above 50% growth control rate) |
| CCOc1c(C(=O)Oc2c(C(=O)c3ccc(C(F)(F)F)c(N4CCCC4=O)c3Cl)c(C3CC3)nn2C)cnn1C [Compound 026] | 10 | 5 (Level 5: above 60% growth control rate) | 10 | 6 (Level 6: above 70% growth control rate) | 10 | – | 4 (Level 4: above 50% growth control rate) | 4 (Level 4: above 50% growth control rate) | 8 (Level 8: above 90% growth control rate) | 8 (Level 8: above 90% growth control rate) | 10 | 10 | 10 | 1 (Level 1: below 5% growth control rate) | 3 (Level 3: above 20% growth control rate) | 8 (Level 8: above 90% growth control rate) | 8 (Level 8: above 90% growth control rate) | 8 (Level 8: above 90% growth control rate) |
| Cn1cc(C(=O)Oc2c(C(=O)c3ccc(C(F)(F)F)c(N4CCCCC4=O)c3Cl)c(C3CC3)nn2C)cn1 [Compound 049] | 10 | 4 (Level 4: above 50% growth control rate) | 6 (Level 6: above 70% growth control rate) | 6 (Level 6: above 70% growth control rate) | 9 (Level 9: above 95% growth control rate) | 10 | 2 (Level 2: 5%-20% growth control rate) | 3 (Level 3: above 20% growth control rate) | 7 (Level 7: above 80% growth control rate) | 8 (Level 8: above 90% growth control rate) | 9 (Level 9: above 95% growth control rate) | 10 | 10 | 0 | 1 (Level 1: below 5% growth control rate) | 1 (Level 1: below 5% growth control rate) | 3 (Level 3: above 20% growth control rate) | 3 (Level 3: above 20% growth control rate) |
